Measurements taken from ChEMBL document CHEMBL1125160, “Dihydropyrimidine calcium channel blockers: 2-heterosubstituted 4-aryl-1,4-dihydro-6-methyl-5-pyrimidinecarboxylic acid esters as potent mimics of dihydropyridines” (J Med Chem, 1990).

Species on record: Oryctolagus cuniculus
Experiment: Vasorelaxant potency in isolated potassium (K(+)-depolarized rabbit thoracic aorta.
Assay type: functional

SMILES | IC50 [nM]
COC(=O)C1=C(C)N=C(SC)NC1c1cccc([N+](=O)[O-])c1 (stereo not given) | 280
CSC1=NC(c2ccccc2[N+](=O)[O-])C(C(=O)OCCN(C)Cc2ccccc2)=C(C)N1 (stereo not given) | 1900
CCOC(=O)C1=C(C)NC(SCc2ccccc2)=NC1c1cccc([N+](=O)[O-])c1 (stereo not given) | 190
CCOC(=O)C1=C(C)NC(SC)=NC1c1cccc([N+](=O)[O-])c1 (stereo not given) | 130
CCCCCSC1=NC(c2cccc([N+](=O)[O-])c2)C(C(=O)OCC)=C(C)N1 (stereo not given) | 180
CSC1=NC(c2cccc([N+](=O)[O-])c2)C(C(=O)OCCN(C)Cc2ccccc2)=C(C)N1 (stereo not given) | 30
CCOC(=O)C1=C(C)NC(N(C)C)=NC1c1cccc([N+](=O)[O-])c1 (stereo not given) | 6100
CC1=C(C(=O)OC(C)C)C(c2cccc([N+](=O)[O-])c2)N=C(SCCN(C)C)N1 (stereo not given) | 1200
CCOC(=O)C1=C(C)NC(SC)=NC1c1ccccc1C(F)(F)F (stereo not given) | 36
CCOC(=O)C1=C(C)NC(SCCN(C)Cc2ccccc2)=NC1c1cccc([N+](=O)[O-])c1 (stereo not given) | 170
C=CCSC1=NC(c2cccc([N+](=O)[O-])c2)C(C(=O)OCC)=C(C)N1 (stereo not given) | 300
CSC1=NC(c2ccccc2C(F)(F)F)C(C(=O)OCCN(C)Cc2ccccc2)=C(C)N1 (stereo not given) | > 100000
CCOC(=O)C1=C(C)N=C(OC)NC1c1cccc([N+](=O)[O-])c1 (stereo not given) | 710
CCOC(=O)C1=C(C)NC(SC)=NC1c1ccccc1[N+](=O)[O-] (stereo not given) | 300

The next compounds have a lower IC50 than those just listed; values first:

IC50 [nM] | SMILES
26 | CCOC(=O)C1=C(C)NC(OCC)=C(C(=O)OCC)C1c1cccc([N+](=O)[O-])c1 (stereo not given)
16 | CCOC(=O)C1=C(C)NC(SC)=NC1c1cccc(Cl)c1Cl (stereo not given)
9 | CCC(C)OC(=O)C1=C(C)NC(SC)=NC1c1cccc([N+](=O)[O-])c1 (stereo not given)
7 | CSC1=NC(c2cccc([N+](=O)[O-])c2)C(C(=O)OC(C)C)=C(C)N1 (stereo not given)
6 | CSC1=NC(c2cccc(Cl)c2Cl)C(C(=O)OC(C)C)=C(C)N1 (stereo not given)
4 | CCOC(=O)C1=C(C)NC(SCC)=C(C(=O)OCC)C1c1cccc([N+](=O)[O-])c1 (stereo not given)
